# Residues, ends and D or L forms follow the SMILES beside them.
# What was measured:
# P. aeruginosa = settings: mouse, iv, 40 mg/kg
# Procedure: Figure 4 The antibacterial activity of AMPR-22 in various physiological conditions. (A,B) Effects of AMPR-22 activity in mouse plasma and human serum. AMPR-22 was incubated with blood components for the indicated times (0, 15, 30, 60, 90, 120, 150, and 180 min) and then with P. aeruginosa or S. aureus for an hour. (C,D) Effects of AMPR-22 activity in low-density lipoprotein (LDL), high-density lipoprotein (HDL), and bovine serum albumin. AMPR-22 was incubated with blood components for the indicated times (0, 30, 60, 120, and 180 min) and then with P. aeruginosa or S. aureus for an hour. (E) Effects of AMPR-22 activity in whole blood. AMPR-22 was incubated with mouse and human whole blood for the indicated times (0, 30, 60, 90, 120, and 180 min) and then with P. aeruginosa for an hour. (F,G) The antibacterial activity of AMPR-22 in vivo. […] (F) The relative CFU in blood samples was calculated using the following formula: CFU at indicated time ÷ CFU at 0 min × 100 (%). […] The antibacterial activity was measured using a colony-forming unit assay. […]
# We used the CFU counting method to measure antibacterial activity, with all bacteria cultured to the mid-log phase in an appropriate broth medium. Bacterial CFUs were counted after overnight culture at 37 °C on TS or LB agar plates. The MBC value and antibacterial activity in blood components were determined as previously described. […]
# [1] = tested on: Vancomycin-resistant E. faecium NCCP 11522; format: cell-based, Enterococcus faecium; settings: Vancomycin-resistant NCCP 11522, 1 h
# Procedure: The minimum bactericidal concentration (MBC) was determined as previously described with minor modifications. Briefly, bacteria were cultured in the mid-log phase and diluted to 5 × 10^5 colony-forming unit (CFU)/mL in 10 mM sodium phosphate buffer (pH 7.4) with a 1% volume of TS broth. They were incubated for 1 h with various peptides which were two-fold diluted serially from 64 μg/mL to 0 μg/mL concentrations in a 96-well plate. The samples were inoculated TS agar plate and incubated overnight at 37 °C. The value of MBC was determined at the lowest concentrations at which no colonies were identified.
# We used the CFU counting method to measure antibacterial activity, with all bacteria cultured to the mid-log phase in an appropriate broth medium. Bacterial CFUs were counted after overnight culture at 37 °C on TS or LB agar plates. The MBC value and antibacterial activity in blood components were determined as previously described. Mouse and human whole blood were collected and diluted with PBS (pH 7.4) to measure the ex vivo antibacterial activity of AMPR-22. For that test, AMPR-22 (10 μg) was added to each whole blood solution and incubated at 37 °C with shaking at 200 rpm. At each time point, it was incubated with bacteria (1 × 10^3 CFU) for 30 min. Each sample was inoculated on an LB agar plate, and CFU counting was performed. […]
compound,measurement,setting,value
CC[C@H](C)[C@H](NC(=O)CNC(=O)CNC(=O)[C@@H](NC(=O)[C@H](C)NC(=O)[C@H](CCSC)NC(=O)[C@H](Cc1ccccc1)NC(=O)[C@@H](NC(=O)CNC(=O)[C@H](Cc1ccccc1)NC(=O)[C@H](CCCCN)NC(=O)CNC(=O)CNC(=O)[C@H](CCCCN)NC(=O)[C@H](CCCCN)NC(=O)[C@H](CCSC)NC(=O)[C@H](CCSC)NC(=O)[C@H](CCCCN)NC(=O)[C@@H](N)CCCCN)[C@@H](C)O)[C@@H](C)CC)C(=O)N[C@@H](CCCNC(=N)N)C(=O)O [AMPR-22] (H-KKMMKKGGKFGTFMAIGGIR-OH),Antibacterial activity maintained 37 min after peptide injection,P. aeruginosa; in vivo,more than 50%
same,Functional half-life in vivo,P. aeruginosa,around 37 min
same,"MBC Value, Vancomycin-resistant E. faecium",[1],4 µg/mL

# — article PMC8348110, “A Novel Peptide Derived from the Transmembrane Domain of Romo1 Is a Promising Candidate for Sepsis Treatment and Multidrug-Resistant Bacteria” (International Journal of Molecular Sciences, 2021)
